Test results from US12583861B2, “Derivatives of imidazo[4,5-d]pyridazine, their preparation and their therapeutic application” (SANOFI, priority 2021, dated 2026).
Structures can show the parent of a compound that is named as a salt. Each block holds one molecule with its values, some of them ahead of it.

How the values were obtained:
human TLR7 = target: T1, human TLR7 (Homo sapiens, UniProt Q9NYK1); assay: HEK-Blue hTLR7 reporter cell assay (SEAP, NF-kB/AP-1) for stimulation of human TLR7; assay type: cell-based; settings: HEK-Blue hTLR7 cells, 24 h incubation, SEAP readout; read-out: TLR7_EC50
T1 construct: host or cells: HEK293 (HEK-Blue hTLR7)
T1 sequence (Q9NYK1 27-1049): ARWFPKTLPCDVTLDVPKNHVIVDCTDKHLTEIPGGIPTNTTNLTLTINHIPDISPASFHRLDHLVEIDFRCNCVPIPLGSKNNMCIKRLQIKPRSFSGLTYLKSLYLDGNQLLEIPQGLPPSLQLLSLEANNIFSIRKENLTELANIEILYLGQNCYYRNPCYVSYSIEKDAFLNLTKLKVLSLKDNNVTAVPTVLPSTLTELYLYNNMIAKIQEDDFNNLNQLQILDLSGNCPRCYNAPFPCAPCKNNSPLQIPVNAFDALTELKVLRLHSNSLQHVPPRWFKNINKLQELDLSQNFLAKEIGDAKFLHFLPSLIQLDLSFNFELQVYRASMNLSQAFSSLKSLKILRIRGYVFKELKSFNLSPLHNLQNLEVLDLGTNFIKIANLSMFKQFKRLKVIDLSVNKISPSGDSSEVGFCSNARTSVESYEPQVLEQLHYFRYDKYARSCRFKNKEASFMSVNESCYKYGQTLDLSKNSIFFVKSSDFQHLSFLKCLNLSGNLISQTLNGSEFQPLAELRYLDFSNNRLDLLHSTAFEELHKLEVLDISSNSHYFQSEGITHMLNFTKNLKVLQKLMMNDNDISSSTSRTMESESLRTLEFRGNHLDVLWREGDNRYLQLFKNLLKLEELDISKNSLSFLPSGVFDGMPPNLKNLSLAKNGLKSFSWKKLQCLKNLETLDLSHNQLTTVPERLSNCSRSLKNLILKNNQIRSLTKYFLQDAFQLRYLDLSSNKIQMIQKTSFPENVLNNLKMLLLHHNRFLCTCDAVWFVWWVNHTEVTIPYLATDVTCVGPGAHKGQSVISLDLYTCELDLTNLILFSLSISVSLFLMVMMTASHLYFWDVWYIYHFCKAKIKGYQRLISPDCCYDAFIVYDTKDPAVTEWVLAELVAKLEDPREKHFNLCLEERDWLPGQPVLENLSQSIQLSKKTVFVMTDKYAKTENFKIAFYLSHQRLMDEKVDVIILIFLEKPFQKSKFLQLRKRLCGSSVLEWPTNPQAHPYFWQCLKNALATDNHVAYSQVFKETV
Procedure: (§1) The below tests, involving measuring the in vitro activity of some compounds of the disclosure on TLR7 and TLR8, were carried out using the HEK-Blue™ cells as reporter.
The activity described below, with respect to TLR7, TLR8, IFN-α2a, IL-6, IL29 and TNF-α, is given by the half maximal effective concentration (EC50), which corresponds to the concentration required to obtain a 50% of the activation. The lower the EC50, the less the concentration of the compound is required to produce 50% of maximum activation and the higher the potency.
(§2) In Vitro Assay for Studying the Stimulation of Human TLR7 and TLR8:
(§3) HEK-Blue™ hTLR7 Cells (#hkb-htlr7) and HEK-Blue™ hTLR8 Cells (#hkb-htlr8) from InvivoGen were used according to the manufacturer's instructions. These Reporter HEK293 cells were obtained by co-transfection of the hTLR7 or TLR8 gene and an optimized Secreted Embryonic Alkaline Phosphatase (SEAP) reporter gene which is placed under the control of the IFN-β minimal promoter fused to five NF-κB and AP-1-binding sites. Stimulation with a TLR7/8 ligand activates NF-kB and AP-1 which induce the production of SEAP. The cells are seeded in 96-well plate at 3.10E4 cells/well and incubated 18 to 24 h at 37° C., 5% CO2 before adding the compounds to evaluate. The cells are subsequently incubated with 3-fold serial dilutions of each of the compounds (0.01 to 20 μM) for 24 hours at 37° C., 5% CO2. Next, 20 μL of the supernatant is harvested and incubated with 200 μL of QUANTI-Blue™ Solution.

human TLR8 = target: T2, human TLR8 (Homo sapiens, UniProt Q9NR97); assay: HEK-Blue hTLR8 reporter cell assay (SEAP, NF-kB/AP-1) for stimulation of human TLR8; assay type: cell-based; settings: HEK-Blue hTLR8 cells, 24 h incubation, SEAP readout; read-out: TLR8_EC50
T2 construct: host or cells: HEK293 (HEK-Blue hTLR8)
T2 sequence (Q9NR97 27-1041): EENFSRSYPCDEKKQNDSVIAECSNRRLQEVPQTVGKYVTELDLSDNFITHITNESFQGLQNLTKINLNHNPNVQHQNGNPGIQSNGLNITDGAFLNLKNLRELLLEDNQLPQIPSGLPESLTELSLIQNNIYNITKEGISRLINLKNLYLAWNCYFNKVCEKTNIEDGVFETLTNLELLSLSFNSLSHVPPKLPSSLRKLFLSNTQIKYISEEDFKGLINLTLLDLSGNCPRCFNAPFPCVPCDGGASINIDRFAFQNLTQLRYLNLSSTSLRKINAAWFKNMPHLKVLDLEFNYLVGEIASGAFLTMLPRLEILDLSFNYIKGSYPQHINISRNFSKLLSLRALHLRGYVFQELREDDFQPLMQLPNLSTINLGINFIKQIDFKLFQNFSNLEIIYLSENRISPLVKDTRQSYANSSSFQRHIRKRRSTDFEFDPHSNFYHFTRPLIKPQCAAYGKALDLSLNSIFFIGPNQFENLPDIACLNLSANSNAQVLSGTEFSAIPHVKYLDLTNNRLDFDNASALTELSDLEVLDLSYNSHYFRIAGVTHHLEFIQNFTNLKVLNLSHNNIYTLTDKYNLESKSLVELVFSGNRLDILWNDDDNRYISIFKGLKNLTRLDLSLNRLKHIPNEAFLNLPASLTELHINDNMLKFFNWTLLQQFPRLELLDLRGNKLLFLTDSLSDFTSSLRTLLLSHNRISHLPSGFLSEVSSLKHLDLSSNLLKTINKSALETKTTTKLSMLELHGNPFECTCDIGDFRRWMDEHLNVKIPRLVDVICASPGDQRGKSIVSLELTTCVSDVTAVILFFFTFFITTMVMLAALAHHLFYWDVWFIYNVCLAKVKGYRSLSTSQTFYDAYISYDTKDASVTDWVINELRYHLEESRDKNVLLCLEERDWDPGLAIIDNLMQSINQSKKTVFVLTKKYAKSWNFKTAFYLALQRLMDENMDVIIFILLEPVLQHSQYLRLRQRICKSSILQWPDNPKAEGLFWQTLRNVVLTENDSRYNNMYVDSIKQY
Procedure: as §1, §2
as §3, with “The cells are subsequently incubated with 3-fold serial dilutions of each of the compounds (0.01 to 20 μM) for 24 hours at 37° C., 5% CO2.” left out

SMILES: CCCCc1nc2c(N)nnc(OC(C)C)c2n1C[C@H]1CCC[C@H](N)C1 (racemic) [Compound 32, 1-(((1S,3S)-3-aminocyclohexyl)methyl)-2-butyl-7-isopropoxy-1H-imidazo[4,5-]pyridazin-4-amine]
EC50 (human TLR7): 598 nM
EC50 (human TLR8): 709 nM

SMILES: CCCCc1nc2c(N)nnc(OC3CC[S+]([O-])C3)c2n1Cc1ccc(OC)cc1 (single isomer, unassigned; isomer a) [Compound 65, 3-((4-amino-2-butyl-1-(4-methoxybenzyl)-1H-imidazo[4,5-d]pyridazin-7-yl)oxy)tetrahydrothiophene 1-oxide isomer A]
EC50 (human TLR7): 2210 nM
EC50 (human TLR8): > 20000 nM

SMILES: CCCCc1nc2c(N)nnc(OC3CC[S+]([O-])C3)c2n1Cc1ccc(OC)cc1 (single isomer, unassigned; isomer b) [Compound 69, 3-((4-amino-2-butyl-1-(4-methoxybenzyl)-1H-imidazo[4,5-d]pyridazin-7-yl)oxy)tetrahydrothiophene 1-oxide isomer B]
EC50 (human TLR7): 6760 nM
EC50 (human TLR8): > 20000 nM

SMILES: CCCCc1nc2c(N)nnc(OC(C)CC)c2n1Cc1ccc(OC)cc1 (stereo not drawn) [Compound 7, 7-(sec-butoxy)-2-butyl-1-(4-methoxybenzyl)-1H-imidazo[4,5-d]pyridazin-4-amine]
EC50 (human TLR7): 46 nM
EC50 (human TLR8): 2100 nM

SMILES: CCCCOc1nnc(N)c2nc(CCCC)n(Cc3ccc(OC)cc3)c12 [Compound 8, 7-butoxy-2-butyl-1-(4-methoxybenzyl)-1H-imidazo[4,5-d]pyridazin-4-amine]
EC50 (human TLR7): 168 nM
EC50 (human TLR8): > 20000 nM

SMILES: CCCCc1nc2c(N)nnc(/C=C/C(C)C)c2n1Cc1ccc(OC)cc1 [Compound 12, (E)-2-butyl-1-(4-methoxybenzyl)-7-(3-methylbut-1-en-1-yl)-1H-imidazo[4,5-d]pyridazin-4-amine]
EC50 (human TLR7): 710 nM
EC50 (human TLR8): > 20000 nM

SMILES: CCCCc1nc2c(N)nnc(C3=CCCC3)c2n1Cc1ccc(OC)cc1 [Compound 15, 2-butyl-7-(cyclopent-1-en-1-yl)-1-(4-methoxybenzyl)-1H-imidazo[4,5-d]pyridazin-4-amine hydrochloride]
EC50 (human TLR7): 649 nM
EC50 (human TLR8): > 20000 nM

SMILES: CCCCc1nc2c(N)nnc(OC(C)C)c2n1Cc1ccc(C#N)cn1 [Compound 27, 6-((4-amino-2-butyl-7-isopropoxy-1H-imidazo[4,5-d]pyridazin-1-yl)methyl)nicotinonitrile]
EC50 (human TLR7): 2100 nM
EC50 (human TLR8): > 20000 nM

Further lines, results first:

EC50 (human TLR7): 145 nM
EC50 (human TLR8): > 20000 nM
SMILES: CCCCc1nc2c(N)nnc(OCCC)c2n1Cc1ccc(OC)cc1 [Compound 5, 2-butyl-1-(4-methoxybenzyl)-7-propoxy-1H-imidazo[4,5-d]pyridazin-4-amine]

EC50 (human TLR7): 192 nM
EC50 (human TLR8): > 20000 nM
SMILES: CCCCc1nc2c(N)nnc(-c3ccn(C)c3)c2n1Cc1ccc(OC)cc1 [Compound 11, 2-butyl-1-(4-methoxybenzyl)-7-(1-methyl-1H-pyrrol-3-yl)-1H-imidazo[4,5d]pyridazin-4-amine]

EC50 (human TLR7): 345 nM
EC50 (human TLR8): > 20000 nM
SMILES: CCCCc1nc2c(N)nnc(CCC(C)C)c2n1Cc1ccc(OC)cc1 [Compound 13, 2-butyl-7-isopentyl-1-(4-methoxybenzyl)-1H-imidazo[4,5-d]pyridazin-4-amine]

EC50 (human TLR7): 323 nM
EC50 (human TLR8): > 20000 nM
SMILES: CCCCc1nc2c(N)nnc(C3CCCC3)c2n1Cc1ccc(OC)cc1 [Compound 16, 2-butyl-7-cyclopentyl-1-(4-methoxybenzyl)-1H-imidazo[4,5-d]pyridazin-4-amine]

EC50 (human TLR7): 32 nM
EC50 (human TLR8): > 20000 nM
SMILES: CCCCc1nc2c(N)nnc(OC(C)C)c2n1C[C@H]1CC[C@H](CN)CC1 [Compound 19, 4-(aminomethyl)cyclohexyl)methyl)-2-butyl-7-isopropoxy-1H-imidazo[4,5-d]pyridazin-4-amine dihydrochloride]

EC50 (human TLR7): 234 nM
EC50 (human TLR8): 2640 nM
SMILES: CCCCc1nc2c(N)nnc(OC(C)C)c2n1CC(C)(C)O [Compound 24, 1-(4-amino-2-butyl-7-isopropoxy-1H-imidazo[4,5-d]pyridazin-1-yl)-2-methylpropan-2-ol]

EC50 (human TLR7): 109 nM
EC50 (human TLR8): > 20000 nM
SMILES: CCCCc1nc2c(N)nnc(OC(C)C)c2n1C[C@H]1CC[C@H](N)CC1 [Compound 25]

EC50 (human TLR7): 144 nM
EC50 (human TLR8): > 20000 nM
SMILES: CCCCc1nc2c(N)nnc(OC(C)C)c2n1Cc1ccc(CN)cn1 [Compound 26, 1-((5-(aminomethyl)pyridin-2-yl)methyl)-2-butyl-7-isopropoxy-1H-imidazo[4,5-d]pyridazin-4-amine]

EC50 (human TLR7): 85 nM
EC50 (human TLR8): > 20000 nM
SMILES: CCCCc1nc2c(N)nnc(OC(C)C)c2n1Cc1ccc(CNC(C)=O)cc1 [Compound 28, N-(4-((4-amino-2-butyl-7-isopropoxy-1H-imidazo[4,5c]pyridazin-1-yl)methyl)benzyl)acetamide]

EC50 (human TLR7): 68 nM
SMILES: CCCCc1nc2c(N)nnc(OC(C)C)c2n1Cc1ccc(CNC(=O)c2ccccc2)cc1 [Compound 106, N-(4-((4-amino-2-butyl-7-isopropoxy-1H-imidazo[4,5-d]pyridazin-1-yl)methyl)benzyl)benzamide]

EC50 (human TLR7): 117 nM
SMILES: CCCCc1nc2c(N)nnc(OC(C)C)c2n1CCCCCCNC1CS(=O)(=O)C1 [Compound 154, 2-butyl-3-[6-[(1,1-dioxothietan-3-yl)amino]hexyl]-4-isopropoxy-imidazo[4,5-d]pyridazin-7-amine]
